We go through 13 molecules from ChEMBL document CHEMBL3044681, “Piperamides and their derivatives as potential anti-trypanosomal agents” (Med Chem Res, 2009).

As usually defined, the pIC50 is −log10 of the IC50, conventionally taken in molar units.

pIC50: −log10 of the molar value.

The first assay has as its system Trypanosoma cruzi. Nature of the assay: Antitrypanosomal activity against epimastigote forms of Trypanosoma cruzi Y after 72 hr. It counts as functional, organism-based.
Details: not given; call rule not given here
For the molecule `COc1cc(CCC(=O)N2CCCCC2=O)cc(OC)c1OC` [TETRAHYDROPIPLARTINE], the IC50 result is given as “Not Active”.
For the molecule `CCCCCCCCCC(=O)NCC(C)C` [TETRAHYDROPELLITORINE], the IC50 entry was “Not Active”.
Turning to `CC(C)CNC(=O)/C=C/c1ccc2c(c1)OCO2` [FOGARAMIDE], the IC50 result is “Not Active”.
Still for that read-out and setting: next, `COC(=O)/C=C/c1cc(OC)c(OC)c(OC)c1`: “Not Active”; `O=C(/C=C/CCc1ccc2c(c1)OCO2)N1CCCCC1` [PIPERANINE]: “Not Active”; `O=C(O)/C=C/C=C/c1ccc2c(c1)OCO2` [PIPERIC ACID]: “Not Active”.
On to `COc1cc(/C=C/C(=O)O)cc(OC)c1OC` [SINAPIC ACID METHYL ETHER], for which the IC50 entry is recorded as “Not Active”.
As to `O=C(CCCCc1ccc2c(c1)OCO2)N1CCCCC1` [TETRAHYDROPIPERINE], the IC50 result is given as “Not Active”.
Consider `CC(C)CNC(=O)/C=C/CCc1ccc2c(c1)OCO2` [4,5-DIHYDROPIPERLONGUMININE], for which the IC50 entry is listed as “Not Active”.

Staying with this assay, now noted: Trypanosoma cruzi, Y, 72 h; read-out: IC50.
Consider `COc1cc(/C=C/C(=O)N2CCC=CC2=O)cc(OC)c1OC` [PIPLARTINE], for which the pIC50 is 4.68.
Consider `O=C(/C=C/C=C/c1ccc2c(c1)OCO2)N1CCCCC1` [PIPERINE], for which the pIC50 was 3.63.
As to `COc1cc(/C=C\C(=O)N2CCC=CC2=O)cc(OC)c1OC` [(Z)-PIPLARTINE], the pIC50 was 4.98.
As to `CCCCC/C=C/C=C/C(=O)NCC(C)C` [PELLITORIN], the pIC50 was 4.24.
